Assay results: patent US10344014B2, “Amorphous form of tetracyclic compound” (Chugai Seiyaku Kabushiki Kaisha, priority 2014, dated 2019)

What was measured:
[1] = Residual rate of principal drug by HPLC after storage (Test Example 5); format: physicochemical
Experimental: The amorphous substances and the solid dispersions of 9-ethyl-6,6-dimethyl-8-(4-morpholin-4-yl-piperidin-1-yl)-11-oxo-6,11-dihydro-5H-benzo[b]carbazole-3-earbonitrile obtained in Examples 8 to 15 were tested under two conditions: i) they were stored in a thermostatic bath set at 40° C. for 3 months, and ii) they were stored in a thermostatic bath set at 40° C. and 75% RH for 3 months in an open state. Residual rates of the principal drugs were measured under following conditions of high performance liquid chromatography. It was concluded that the amorphous substances and the solid dispersions were chemically stable.
Detector: UV absorptiometer (measurement wavelength: 230 nm)
Column: stainless column of 4.6 mm in inner diameter and 15 cm in length, filled with 3.5 um of octadecylsilyl silica gel for liquid chromatography
Column temperature: fixed temperature about 35° C.
Mobile phase A: mixed solution of acetonitrile/trifluoroacetic acid (2000:1)
Mobile phase B: mixed solution of water/trifluoroacetic acid (2000:1)
Mobile phase supply: controlled concentration gradient with varying mixing ratio of mobile phases A and B as follows.

[2] = Intrinsic dissolution rate, USP chapter 1087 (Example 5); format: physicochemical
Experimental: A test of measuring intrinsic dissolution rate (according to USP chapter 1087 “APPARENT […] DISSOLUTION-DISSOLUTION TESTING PROCEDURES FOR ROTATING DISK AND STATIONARY DISK”) was performed on a composition containing the amorphous and crystalline forms (form I crystals) of 9-ethyl-6,6-dimethyl-8-(4-morpholin-4-yl-piperidin-1-yl)-11-oxo-6,11-dihydro-5H-benzo[b]carbazole-3-carbonitrilemonohydrochloride at certain ratios. It was concluded that the dissolution rate was increased when the content of the amorphous was about 15% or higher.

Q: What does the source list for CCc1cc2c(cc1N1CCC(N3CCOCC3)CC1)C(C)(C)c1[nH]c3cc(C#N)ccc3c1C2=O [Example 8, 9-ethyl-6,6-dimethyl-8-(4-morpholin-4-yl-piperidin-1-yl)-11-oxo-6,11-dihydro-5H-benzo[b]carbazole-3-carbonitrile]?
A: Retention rate after 3 months at 40° C. in 75 % RH ([1]; 40° C. and 75% RH, open state): 99.66; Retention rate after 3 months at 40° C. ([1]; thermostatic bath 40° C.): 99.60

Q: With CCc1cc2c(cc1N1CCC(N3CCOCC3)CC1)C(C)(C)c1[nH]c3cc(C#N)ccc3c1C2=O.Cl [9-ethyl-6,6-dimethyl-8-(4-morpholin-4-yl-piperidin-1-yl)-11-oxo-6,11-dihydro-5H-benzo[b]carbazole-3-carbonitrilemonohydrochloride] as the molecule, how does the Intrinsic dissolution rate ([2]; Amount of amorphous 5.6%) read?
A: Its Intrinsic dissolution rate is 0.0065 mg/cm^2/min.

Q: What about the Intrinsic dissolution rate ([2]; Amount of amorphous 9.8%) of the same molecule?
A: Its Intrinsic dissolution rate is 0.0065 mg/cm^2/min.

Q: What about the Intrinsic dissolution rate ([2]; Amount of amorphous 16.8%) of the same molecule?
A: The Intrinsic dissolution rate was 0.0112 mg/cm^2/min.

Q: What about the Intrinsic dissolution rate ([2]; Amount of amorphous (%): 0 < Lower than detection limit) of the same molecule?
A: The Intrinsic dissolution rate was 0.0078 mg/cm^2/min.
